As a reminder, the EC50 is the concentration giving half of the maximal effect. A higher EC50 goes with a need for much substance.

For the test, the target named is T1, soluble guanylate cyclase (Homo sapiens, UniProt Q02153).
T1 construct: expressed in transfected cells
Briefly: CHO cellular assay (cGMP production, Cisbio cGMP HTRF). Conditions: CHO K1 cells overexpressing human GUCYA3/GUCYB3 (clone 8E10), 1 mM IBMX, 20 uM ODQ, 1 h room temperature, listed 0.5 nM means actual EC50 ≤0.5 nM (quantification limit). In kind it is cell-based. From the text: Chinese hamster ovary (CHO) cells overexpressing soluble guanylate cyclase were generated to test the effect of sGC activators in a cellular context. Human cDNAs for GUCYA3 (RefSeq: NM_000856.3) and GUCYB3 (RefSeq: NM_000857.1) were amplified by PCR from a HUVEC (Human Umbilical Vein Endothelial Cells) cDNA library and cloned into mammalian expression vectors. CHO K1 cells (ATCC CCL-61) were transfected using Lipofectamine 2000 following manufacturer's instructions and stably expressing clones were identified by antibiotic selection. CHO GUCY clone 8E10 was used for subsequent experiments.
Cells were seeded at a density of 3000 cells/well in white 384-well proxyplates (Perkin Elmer) and incubated overnight, then the medium was removed and cells were washed with assay buffer (HBSS, 0.1% BSA, 1 mM IBMX, 20 uM ODQ). sGC activators were serially diluted in DMSO, then diluted in assay buffer prior to adding to cells (10 ul/well, final DMSO concentration 0.5%). Cells were incubated with compounds for 1 h room temperature, then assayed for cGMP production using Cisbio cGMP HTRF kit (62GM2PEC) according to manufacturer's instructions.
The EC50s are calculated based on the amount of cGMP interpolated from the standard curve, using a 4-parameter sigmoidal dose-response.
Compounds of invention are active on sGC activation. Data on Table 1 collected using the assay of Biological Example 1. The minimum EC50 quantification limit of the assay is 0.5 nM, therefore any compound listed as having an EC50 value of 0.5 nM has a actual EC50 of ≤0.5 nM.

T1 sequence (Q02108 whole entry partner): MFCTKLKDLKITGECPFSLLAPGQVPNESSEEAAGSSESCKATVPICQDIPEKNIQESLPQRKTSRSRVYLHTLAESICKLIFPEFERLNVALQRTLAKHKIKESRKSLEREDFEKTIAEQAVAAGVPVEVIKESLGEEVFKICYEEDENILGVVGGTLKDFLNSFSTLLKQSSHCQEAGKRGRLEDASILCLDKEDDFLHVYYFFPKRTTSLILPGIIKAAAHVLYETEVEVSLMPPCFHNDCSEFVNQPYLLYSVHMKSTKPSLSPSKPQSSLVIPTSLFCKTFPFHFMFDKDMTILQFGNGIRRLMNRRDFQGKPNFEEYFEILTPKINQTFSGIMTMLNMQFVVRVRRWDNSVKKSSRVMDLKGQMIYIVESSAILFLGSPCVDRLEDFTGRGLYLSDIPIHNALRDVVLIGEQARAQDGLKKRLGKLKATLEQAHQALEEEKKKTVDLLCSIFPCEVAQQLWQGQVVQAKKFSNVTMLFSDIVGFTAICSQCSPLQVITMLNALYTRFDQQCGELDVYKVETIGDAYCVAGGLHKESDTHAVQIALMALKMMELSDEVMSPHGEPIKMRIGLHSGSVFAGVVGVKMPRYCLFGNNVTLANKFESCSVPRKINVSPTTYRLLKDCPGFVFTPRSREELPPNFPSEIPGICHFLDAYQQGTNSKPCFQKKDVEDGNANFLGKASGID
T1 sequence (Q02153 whole entry): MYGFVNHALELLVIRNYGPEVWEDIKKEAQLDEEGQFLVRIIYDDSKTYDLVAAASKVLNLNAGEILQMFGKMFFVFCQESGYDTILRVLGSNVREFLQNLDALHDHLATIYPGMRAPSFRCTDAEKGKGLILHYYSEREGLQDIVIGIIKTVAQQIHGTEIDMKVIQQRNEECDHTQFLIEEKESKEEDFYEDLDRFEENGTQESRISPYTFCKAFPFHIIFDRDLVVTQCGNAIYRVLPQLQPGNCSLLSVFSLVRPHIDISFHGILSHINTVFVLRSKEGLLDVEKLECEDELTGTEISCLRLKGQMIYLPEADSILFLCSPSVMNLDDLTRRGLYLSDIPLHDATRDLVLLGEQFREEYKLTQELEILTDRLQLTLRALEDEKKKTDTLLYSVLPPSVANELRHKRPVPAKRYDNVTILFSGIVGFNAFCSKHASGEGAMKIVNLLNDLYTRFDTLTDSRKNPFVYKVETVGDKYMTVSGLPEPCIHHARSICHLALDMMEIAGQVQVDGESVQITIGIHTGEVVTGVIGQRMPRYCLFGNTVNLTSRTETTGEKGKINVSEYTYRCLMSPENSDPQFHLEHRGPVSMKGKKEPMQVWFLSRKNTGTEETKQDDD

Consider `Cc1cccc(CN2CCc3cc(OCC4=C(c5cccc(-n6ncc(C(=O)O)c6C(F)(F)F)n5)CCCC4)ccc3C2)n1` [Example 5, 1-(6-(2-(((2-((6-Methylpyridin-2-yl)methyl)-1,2,3,4-tetrahydroisoquinolin-6-yl)oxy)methyl)cyclohex-1-en-1-yl)pyridin-2-yl)-5-(trifluoromethyl)-1H-pyrazole-4-carboxylic acid], for which the concentration giving a half-maximal response (EC50) amounted to 10 nM. With `Cc1cc(C2CCN(CC(F)(F)F)CC2)ccc1OCC1=C(c2cccc(-n3ncc(C(=O)O)c3C(F)(F)F)n2)CCCC1` [Example 6-1, 1-(6-(2-((2-methyl-4-(1-(2,2,2-trifluoroethyl)piperidin-4-yl)phenoxy)methyl)cyclohex-1-en-1-yl)pyridin-2-yl)-5-(trifluoromethyl)-1H-pyrazole-4-carboxylic acid] the figure was 2.8 nM; with `O=C(O)c1cnn(-c2cccc(C3=C(COc4ccc5c(c4)CCN(Cc4ccc6ccccc6n4)C5)CCCC3)n2)c1C(F)(F)F` [Example 6-2, 1-(6-(2-(((2-(quinolin-2-ylmethyl)-1,2,3,4-tetrahydroisoquinolin-6-yl)oxy)methyl)cyclohex-1-en-1-yl)pyridin-2-yl)-5-(trifluoromethyl)-1H-pyrazole-4-carboxylic acid], 16 nM. With `Cc1cc(C2CCN(CC3CC3)CC2)ccc1OCC1=C(c2cccc(-n3ncc(C(=O)O)c3C(F)(F)F)n2)CCCC1` [Example 6-3, 1-(6-(2-((4-(1-(Cyclopropylmethyl)piperidin-4-yl)-2-methylphenoxy)methyl)cyclohex-1-en-1-yl)pyridin-2-yl)-5-(trifluoromethyl)-1H-pyrazole-4-carboxylic acid] the figure was 374 nM; with `CCc1cc(OCC2=C(c3cccc(-n4ncc(C(=O)O)c4C(F)(F)F)n3)CCCC2)ccc1C1CCN(C(=O)C2CC2)CC1` [Example 7, 1-(6-(2-((4-(1-(Cyclopropanecarbonyl)piperidin-4-yl)-3-ethylphenoxy)methyl)cyclohex-1-en-1-yl)pyridin-2-yl)-5-(trifluoromethyl)-1H-pyrazole-4-carboxylic acid], 1 nM. With `CCc1cc(C2CCN(C(=O)C3CC3)CC2)ccc1OCC1=C(c2cccc(-n3ncc(C(=O)O)c3C(F)(F)F)n2)CCCC1` [Example 8-1, 1-(6-(2-((4-(1-(cyclopropanecarbonyl)piperidin-4-yl)-2-ethylphenoxy)methyl)cyclohex-1-en-1-yl)pyridin-2-yl)-5-(trifluoromethyl)-1H-pyrazole-4-carboxylic acid] the figure was 5.5 nM; with `O=C(O)c1cnn(-c2cccc(C3=C(COc4ccc5c(c4)CCN(Cc4ccccn4)C5)CCCC3)n2)c1C(F)(F)F` [Example 8-2, 1-(6-(2-(((2-(pyridin-2-ylmethyl)-1,2,3,4-tetrahydroisoquinolin-6-yl)oxy)methyl)cyclohex-1-en-1-yl)pyridin-2-yl)-5-(trifluoromethyl)-1H-pyrazole-4-carboxylic acid], 34 nM; with `CCc1c(C(=O)O)cnn1-c1cccc(C2=C(COc3ccc(C4CCN(C(=O)C5CC5)CC4)cc3C)CCCC2)n1` [Example 9, 1-(6-(2-((4-(1-(Cyclopropanecarbonyl)piperidin-4-yl)-2-methylphenoxy)methyl)cyclohex-1-en-1-yl)pyridin-2-yl)-5-ethyl-1H-pyrazole-4-carboxylic acid], at most 0.5 nM. On to `Cc1cc(C2CCN(C(=O)C3CC3)CC2)ccc1OCC1=C(c2cccc(-n3ncc(C(=O)O)c3C(F)(F)F)c2)CCCC1` [Example 10, 1-(6′-((4-(1-(Cyclopropanecarbonyl)piperidin-4-yl)-2-methylphenoxy)methyl)-2′,3′,4′,5′-tetrahydro-[1,1-biphenyl]-3-yl)-5-(trifluoromethyl)-1H-pyrazole-4-carboxylic acid], for which the EC50 came out at 1 nM.

In turn, `Cc1cc(C2CCN(C(=O)CN)CC2)ccc1OCC1=C(c2cccc(-n3ncc(C(=O)O)c3C(F)(F)F)n2)CCCC1` [Example 11, 1-(6-(2-((4-(1-(2-Aminoacetyl)piperidin-4-yl)-2-methylphenoxy)methyl)cyclohex-1-en-1-yl)pyridin-2-yl)-5-(trifluoromethyl)-1H-pyrazole-4-carboxylic acid] displayed an EC50 of 110 nM.

On to `CCc1cc(OCC2=C(c3cccc(-n4ncc(C(=O)O)c4C(F)(F)F)n3)CCCC2(C)C)ccc1C1CCN(C(=O)C2CC2)CC1` [Example 14, 1-(6-(2-((4-(1-(Cyclopropanecarbonyl)piperidin-4-yl)-3-ethylphenoxy)methyl)-3,3-dimethylcyclohex-1-en-1-yl)pyridin-2-yl)-5-(trifluoromethyl)-1H-pyrazole-4-carboxylic acid], for which the EC50 turned out to be 1 nM. With `Cc1cc(C2CCN(C(=O)C3CC3)CC2)ccc1OCC1=C(c2cccc(-n3ncc(C(=O)O)c3C(F)(F)F)n2)CCC1` [Example 21, 1-(6-(2-((4-(1-(Cyclopropanecarbonyl)piperidin-4-yl)-2-methylphenoxy)methyl)cyclopent-1-en-1-yl)pyridin-2-yl)-5-(trifluoromethyl)-1H-pyrazole-4-carboxylic acid] the figure was 2.4 nM; with `Cc1cc(C2CCN(C(=O)N(C)C)CC2)ccc1OCC1=C(c2cccc(-n3ncc(C(=O)O)c3C(F)(F)F)n2)CCC1` [Example 23, 1-(6-(2-((4-(1-(Dimethylcarbamoyl)piperidin-4-yl)-2-methylphenoxy)methyl)cyclopent-1-en-1-yl)pyridin-2-yl)-5-(trifluoromethyl)-1H-pyrazole-4-carboxylic acid], 3.5 nM; with `Cc1cc(C2CCN(C(=O)CO)CC2)ccc1OCC1=C(c2cccc(-n3ncc(C(=O)O)c3C(F)(F)F)n2)CCC1` [Example 24-1, 1-(6-(2-((4-(1-(2-hydroxyacetyl)piperidin-4-yl)-2-methylphenoxy)methyl)cyclopent-1-en-1-yl)pyridin-2-yl)-5-(trifluoromethyl)-1H-pyrazole-4-carboxylic acid], 19 nM. The compound `CCC(=O)N1CCC(c2ccc(OCC3=C(c4cccc(-n5ncc(C(=O)O)c5C(F)(F)F)n4)CCC3)c(C)c2)CC1` [Example 24-2, 1-(6-(2-((2-Methyl-4-(1-propionylpiperidin-4-yl)phenoxy)methyl)cyclopent-1-en-1-yl)pyridin-2-yl)-5-(trifluoromethyl)-1H-pyrazole-4-carboxylic acid] returned an EC50 of 2.4 nM. With `COC(=O)N1CCC(c2ccc(OCC3=C(c4cccc(-n5ncc(C(=O)O)c5C(F)(F)F)n4)CCC3)c(C)c2)CC1` [Example 24-3, 1-(6-(2-((4-(1-(Methoxycarbonyl)piperidin-4-yl)-2-methylphenoxy)methyl)cyclopent-1-en-1-yl)pyridin-2-yl)-5-(trifluoromethyl)-1H-pyrazole-4-carboxylic acid], the EC50 was 22 nM. This EC50 lies about 9.2-fold higher than the previous one. The figure for `Cc1cc(C2CCN(S(C)(=O)=O)CC2)ccc1OCC1=C(c2cccc(-n3ncc(C(=O)O)c3C(F)(F)F)n2)CCC1` [Example 24-4, 1-(6-(2-((2-Methyl-4-(1-(methylsulfonyl)piperidin-4-yl)phenoxy)methyl)cyclopent-1-en-1-yl)pyridin-2-yl)-5-(trifluoromethyl)-1H-pyrazole-4-carboxylic acid] is 2.4 nM; for `Cc1cc(C2CCN(CC(F)(F)F)CC2)ccc1OCC1=C(c2cccc(-n3ncc(C(=O)O)c3C(F)(F)F)n2)CCC1` [Example 25, 1-(6-(2-((2-Methyl-4-(1-(2,2,2-trifluoroethyl)piperidin-4-yl)phenoxy)methyl)cyclopent-1-en-1-yl)pyridin-2-yl)-5-(trifluoromethyl)-1H-pyrazole-4-carboxylic acid] it is 5 nM. With `CCc1cc(NCC2=C(c3cccc(-n4ncc(C(=O)O)c4C(F)(F)F)n3)CCCC2)ccc1C1CCN(C(=O)C2CC2)CC1` [Example 26, 1-(6-(2-(((4-(1-(Cyclopropanecarbonyl)piperidin-4-yl)-3-ethylphenyl)amino)methyl)cyclohex-1-en-1-yl)pyridin-2-yl)-5-(trifluoromethyl)-1H-pyrazole-4-carboxylic acid], the EC50 was at most 0.5 nM. The figure for `Cc1cc(C2CCN(C(=O)C3CC3)CC2)ccc1NCC1=C(c2cccc(-n3ncc(C(=O)O)c3C(F)(F)F)n2)CCCC1` [Example 27-1, 1-(6-(2-(((4-(1-(Cyclopropanecarbonyl)piperidin-4-yl)-2-methylphenyl)amino)methyl)cyclohex-1-en-1-yl)pyridin-2-yl)-5-(trifluoromethyl)-1H-pyrazole-4-carboxylic acid] is 2.4 nM; for `O=C(O)c1cnn(-c2cccc(C3=C(CNc4ccc(C5CCN(C(=O)C6CC6)CC5)cc4)CCCC3)n2)c1C(F)(F)F` [Example 27-2, 1-(6-(2-(((4-(1-(Cyclopropanecarbonyl)piperidin-4-yl)phenyl)amino)methyl)cyclohex-1-en-1-yl)pyridin-2-yl)-5-(trifluoromethyl)-1H-pyrazole-4-carboxylic acid] it is 5 nM.

Source of the values: patent US9957254B2, “Cyclohexen-1-yl-pyridin-2-yl-1h-pyrazole-4-carboxylic acid derivatives and the use thereof as soluble guanylate cyclase activators” (Novartis AG, priority 2014, dated 2018).
